Measurements reported in PubChem BioAssay (NCI).
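Assay format: 96-well plates, 48-hour exposure. At the TGI there is no net growth.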 *1 amine or outer side, *2 acyl side, *3 side chain or, on linkers, in order; H or OH if unused. Where a SMILES comes first, the peptide text is derived from it. [ ]: non-standard residue; d: D form. The star is where a group is joined. X33 = C=CCC(O[*:1])C(=O)[*:2]; NMeV = CN[CH](C(=O)O)C(C)C; NMeA = CN[CH](C)C(=O)O; Boc = CC(C)(C)OC(=O)*; OBn = c1ccc(CO*)cc1; βAla = NCCC(=O)O

Legend:
Test in all cases: growth of human tumour cells (NCI), 48 h
NCI-H226 lung = system: NCI-H226 lung
786-0 renal = system: 786-0 renal
T-47D breast = system: T-47D breast
LOX IMVI melanoma = system: LOX IMVI melanoma
NCI/ADR-RES ovarian = system: NCI/ADR-RES ovarian
HOP-62 NSCLC = system: HOP-62 NSCLC
KM12 colon = system: KM12 colon
M14 melanoma = system: M14 melanoma
IGROV1 ovarian = system: IGROV1 ovarian
NCI-H522 lung = system: NCI-H522 lung
BT-549 breast = system: BT-549 breast
SW-620 colon = system: SW-620 colon
COLO 205 colon = system: COLO 205 colon
EKVX NSCLC = system: EKVX NSCLC
MCF7 breast = system: MCF7 breast
DU-145 prostate = system: DU-145 prostate
NCI-H460 lung = system: NCI-H460 lung

Row | Compound | TGI (NCI-H226 lung) [µM] | TGI (786-0 renal) [µM] | TGI (T-47D breast) [µM] | TGI (LOX IMVI melanoma) [µM] | TGI (NCI/ADR-RES ovarian) [µM] | TGI (HOP-62 NSCLC) [µM] | TGI (KM12 colon) [µM] | TGI (M14 melanoma) [µM] | TGI (IGROV1 ovarian) [µM] | TGI (NCI-H522 lung) [µM] | TGI (BT-549 breast) [µM] | TGI (SW-620 colon) [µM] | TGI (COLO 205 colon) [µM] | TGI (EKVX NSCLC) [µM] | TGI (MCF7 breast) [µM] | TGI (DU-145 prostate) [µM] | TGI (NCI-H460 lung) [µM]
1 | Cc1n[nH]c(=O)n1/N=C\CC/C=N\n1c(C)n[nH]c1=O | > 100 | > 100 | > 100 | > 100 | > 100 | > 100 | > 100 | > 100 | > 100 | > 100 | > 100 | > 100 | > 100 | > 100 | > 100 | > 100 | –
2 | CN(CCCN(C)CCc1ccc(Cl)c(Cl)c1)CCCN1CCCC1 | 5.68 | 2.76 | 5.94 | 3.54 | 19.8 | 10.5 | 7.99 | 3.66 | 8.65 | 3.51 | 19 | 7.96 | 6.84 | 13.7 | 3.69 | 21.4 | 5.98
3 | COC(=O)C1CCC(=O)N1C(c1ccccc1)c1cc(OC)c(OC)c(OC)c1 (stereo not drawn) | > 100 | > 100 | > 100 | > 100 | > 100 | > 100 | > 100 | > 100 | > 100 | > 100 | > 100 | > 100 | > 100 | > 100 | > 100 | > 100 | > 100
4 | CC(NC(=O)C(Cc1ccccc1)NC(=O)C(Cc1ccccc1)NC(=O)OC(C)(C)C)C(=O)OCc1ccccc1 (stereo not drawn) (Boc-Phe-Phe-Ala-OBn; configuration not given here) | 84 | > 100 | > 100 | > 100 | > 100 | > 100 | > 100 | > 100 | > 100 | > 100 | > 100 | > 100 | > 100 | > 100 | > 100 | > 100 | > 100
5 | CC(=O)N1N(c2ccc([N+](=O)[O-])cc2)C(=O)C1(C)C | 37.6 | 36.6 | > 100 | 26.5 | 89.9 | 40.4 | 35.4 | 23.7 | 44.8 | 27.2 | 24.2 | 29.2 | 30.5 | 34.5 | 42.5 | > 100 | > 100
6 | Cc1ccc2c(c1)-c1c(C#N)c(N)nc(-c3ccccc3)c1CCS2(=O)=O | > 30.2 | > 100 | > 100 | > 100 | > 46.5 | > 100 | > 100 | > 100 | > 51.1 | 4.58 | > 43.4 | > 100 | > 56.3 | > 100 | > 100 | > 38.9 | > 100
7 | NC(CCC(=O)O)(CCC(=O)O)CCC(=O)O | > 100 | > 100 | > 100 | – | > 100 | – | > 100 | > 100 | > 100 | > 100 | > 100 | > 100 | > 100 | > 100 | > 100 | > 100 | > 100
8 | COC(=O)CC(=O)Nc1sccc1S(=O)(=O)c1ccccc1 | 95 | > 100 | > 100 | – | > 100 | – | > 100 | > 100 | > 100 | > 100 | > 100 | > 100 | > 100 | > 100 | > 100 | > 100 | > 100
9 | c1ccc(C2OCC(OC3CCCCO3)CO2)cc1 (stereo not drawn) | > 100 | > 100 | > 100 | > 100 | > 100 | > 100 | – | > 100 | > 100 | > 100 | > 100 | > 100 | > 100 | > 100 | > 100 | > 100 | > 100
10 | COc1ccc(C(=O)/C=C/c2cccnc2)cc1OC | 24.8 | 14.1 | 22 | 3.81 | 36.5 | 28.2 | – | 26.6 | 21.9 | 3.5 | 19.3 | – | 22.9 | 28.7 | 13 | 27.8 | –
11 | CC(C)/C(Cl)=N\OC(=O)Nc1ccc(F)cc1F | 29.8 | 13.3 | 47.3 | 3.32 | 21.2 | 31.8 | 35.1 | 13.3 | 30.9 | – | 25.9 | 3.31 | 3.52 | 13.8 | 13.4 | 31.7 | 43.1
12 | c1ccc2c(c1)nc1n2C2CCC(C2)N1 (stereo not drawn) | > 10 | > 10 | > 10 | > 10 | > 10 | > 10 | – | > 10 | > 10 | > 10 | > 10 | > 10 | > 10 | > 10 | > 10 | > 10 | > 10
13 | C/C(=N\NC(=S)NC(C)(C)C)c1ccccn1 | 16 | 98.4 | 34.9 | > 100 | > 39.7 | > 100 | > 100 | 9.19 | > 40.6 | > 23.1 | > 100 | > 100 | > 100 | > 100 | > 100 | > 100 | –
14 | CC(C)C/C=C/C1=NN(c2cccc(S(=O)(=O)O)c2)C2(C1)SCC(=O)N2c1nc2ccccc2s1 (stereo not drawn) | > 100 | 46.3 | 47.2 | 70 | > 100 | – | > 100 | > 100 | > 100 | 60.2 | > 100 | > 100 | > 100 | > 100 | > 100 | > 100 | > 100
15 | COc1cc2c(cc1OC)C(C)N(C)c1c-2c(OC(C)=O)cc2cc(OC)c(OC)cc12 (stereo not drawn) | > 44.1 | 62 | 24.1 | 39.8 | 33.2 | > 79.7 | 34.1 | 28.2 | – | 19.2 | 47.1 | > 78.2 | 20 | 61.9 | 40.2 | 40.8 | 27.6
16 | COc1ccc(C2(O)c3ccccc3C(=O)N(C)C2(O)c2ccc(OC)cc2)cc1 (stereo not drawn) | – | > 100 | > 100 | > 100 | > 100 | > 100 | 89.4 | > 100 | > 100 | 74.9 | > 100 | > 100 | 60.1 | > 100 | > 100 | > 100 | > 100
17 | CC1(C)OC(=O)C2(O1)C(=O)C1CCCCC12 (stereo not drawn) | > 100 | > 100 | > 100 | – | > 100 | > 100 | > 100 | > 100 | > 100 | > 100 | > 100 | > 100 | > 100 | > 100 | > 100 | > 100 | –
18 | CCCCCC[C@H]1C(=O)O[C@H](C)[C@H](NC(=O)c2cccc(NC=O)c2OC)C(=O)O[C@@H](C)[C@@H]1OC(=O)CC(C)C (tested in a mixture with another compound) | > 100 | > 100 | > 100 | > 100 | 84.9 | > 100 | > 100 | > 100 | – | > 100 | > 100 | > 100 | 34.7 | > 100 | 78.3 | > 100 | > 100
19 | COC(C)(C)CCc1[nH]c2ccccc2c1CC(=O)NCCc1cncn1C | > 100 | > 100 | > 100 | > 100 | > 100 | – | > 100 | > 100 | > 100 | > 100 | > 100 | > 100 | > 100 | > 100 | > 100 | > 100 | > 100
20 | O=C1OCC/C1=C/c1ccc(N=Nc2c(O)ccc3ccccc23)cc1 | 36 | 36.6 | > 100 | – | 41.7 | 45.8 | 22.3 | 66.3 | 54.7 | 41.8 | 49.9 | 40 | 58 | 41.8 | > 100 | 36.6 | 47.3
21 | CC12c3c4cc(Br)cc3Oc3cc(Br)cc(c31)Oc1cc(Br)cc(c12)O4 | 41.3 | 44.4 | > 100 | 51.1 | 58.5 | > 100 | > 100 | > 100 | 86.6 | – | 52.7 | > 100 | > 100 | 82.6 | > 100 | 49.1 | > 100
22 | C=CCC1OC(=O)CCNC(=O)C(C)N(C)C(=O)C(C(C)C)N(C)C(=O)C(C(C)CC)NC(=O)C2CCCN2C1=O (stereo not drawn) (cyclo([X33]PI[NMeV][NMeA][βAla]); configuration not given here) | – | > 100 | > 100 | 5.17 | > 100 | > 100 | > 100 | > 100 | > 100 | > 100 | > 100 | > 100 | > 100 | > 100 | > 100 | > 100 | > 100
23 | O=c1[nH]c(-c2ccccc2)nc2c1sc1nc3ccccc3n12 | > 100 | > 100 | > 100 | > 100 | > 100 | – | > 100 | > 100 | > 100 | > 100 | > 100 | > 100 | > 100 | > 100 | > 100 | > 100 | > 100
24 | CC(C)(C)OC(=O)N/N=C(/N)Cc1ccccc1 | > 100 | > 100 | > 100 | > 100 | > 100 | > 100 | > 100 | > 100 | > 100 | > 100 | > 100 | > 100 | > 100 | > 100 | > 100 | > 100 | –
25 | COc1cc(/C=C2\C(=O)N(Cc3ccccc3)C(c3ccccc3)S2(=O)=O)cc(OC)c1OC (stereo not drawn) | > 100 | > 100 | > 100 | > 100 | > 100 | > 100 | > 100 | > 100 | – | > 100 | > 100 | > 100 | 94 | > 100 | > 100 | > 100 | > 100
26 | CCOc1cc2c(cc1OC(C)=O)C(=O)CC[C@H]1C3CC[C@H](OC(C)=O)[C@@]3(C)CC[C@H]21 (stereo partly drawn) | > 100 | > 100 | > 100 | > 100 | > 100 | > 100 | > 100 | > 100 | – | > 100 | > 100 | > 100 | > 100 | > 100 | > 100 | > 100 | > 100
27 | COC(=O)C1(Cc2ccc3c(c2)CCC3)Cc2ccc3c(c2C1)CCC3 (stereo not drawn) | 66 | 97.6 | 27.1 | 32.9 | 72.8 | > 100 | 54 | – | 74.6 | 45.1 | 56.9 | 69.7 | 39.2 | > 100 | 31.4 | > 100 | 73.2
28 | O=C1/C(=C/c2c(Cl)[nH]c3ccccc23)c2ccccc2N1c1ccccc1 | – | 25.4 | 16 | 15.6 | 6.55 | 26.1 | 19.7 | 13 | 39.1 | 10.7 | 21.2 | 41.7 | 5.34 | 27.2 | 30.9 | 32.9 | 14.4
